Results published in PMC9413508, “PI3K/mTOR Dual Inhibitor Pictilisib Stably Binds to Site I of Human Serum Albumin as Observed by Computer Simulation, Multispectroscopic, and Microscopic Studies” (Molecules, 2022).

Target: T1, human serum albumin (HSA) (Homo sapiens, UniProt P02768)
T1 construct: gene ALB; fatty-acid-free HSA, commercial (Sigma-Aldrich); mature protein, 585 residues, monomer
Experiment: intrinsic Trp fluorescence quenching, double-log plot
Type: binding
Details: 298 K, pH 7.4 PBS 10 mM, HSA 2 μM; λex 280 nm; n = 1.14; site I (subdomain IIA)
Protocol: intrinsic Trp fluorescence quenching, double-log plot on human serum albumin (HSA) | the association constant (Ka) between GDC-0941 and HSA was calculated

T1 sequence (P02768 25-609): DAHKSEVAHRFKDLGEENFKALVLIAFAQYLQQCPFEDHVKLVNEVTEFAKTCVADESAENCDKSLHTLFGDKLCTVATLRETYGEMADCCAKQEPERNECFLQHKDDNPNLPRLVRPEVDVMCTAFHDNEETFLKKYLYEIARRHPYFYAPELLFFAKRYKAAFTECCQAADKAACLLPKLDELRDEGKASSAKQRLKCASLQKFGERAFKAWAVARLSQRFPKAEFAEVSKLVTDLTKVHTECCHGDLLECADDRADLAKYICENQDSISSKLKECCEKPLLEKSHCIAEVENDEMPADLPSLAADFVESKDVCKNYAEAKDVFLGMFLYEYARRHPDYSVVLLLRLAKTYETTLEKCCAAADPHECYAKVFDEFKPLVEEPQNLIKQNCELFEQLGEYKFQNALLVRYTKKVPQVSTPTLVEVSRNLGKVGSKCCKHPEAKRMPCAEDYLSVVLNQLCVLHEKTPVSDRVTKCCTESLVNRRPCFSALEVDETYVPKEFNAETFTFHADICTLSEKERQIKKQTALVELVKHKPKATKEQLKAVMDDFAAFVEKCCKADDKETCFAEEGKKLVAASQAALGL

CS(=O)(=O)N1CCN(Cc2cc3nc(-c4cccc5[nH]ncc45)nc(N4CCOCC4)c3s2)CC1 [GDC-0941]
Ka (×10^5 M^-1): 4.09 ×10^5 M^−1
